The values below come from patent US20230235374A1, “High Throughput Assays for Detecting Translation Readthrough Inducers” (The Trustees of the University of Pennsylvania, priority 2021, published 2023).

For test [1], the system named is POST5 complex (eRF1 & 3 peptide release). Briefly: Fluorometer anisotropy measurement of POST5 complex Stop IRES-Lys*. As to conditions: 0.1 μM POST5, eRF1 0.1 μM, eRF3 0.2 μM, GTP 2.0 mM, 25° C. It counts as biochemical. How it is done: Fluorometer measurements of POST5 complex Stop IRES-Lys* included the following treatment methods and components:
POST5 complex was treated with ternary complexes of release factor 1 and 3 and GTP. Lys was labeled with the fluorescent label Atto647. Conditions for the assay were as follows: at 25° C., Buffer condition included 0.1 μM POST 5. Release factor 1 and 3 (eRF1 & 3) POST 5 condition included 0.1 μM POST5; eRF1 at 0.1 μM; eRF3 at 0.2 μM; and GTP at 2 mM. Release factor 1 and 3 (eRF1 & 3) POST 5 and ataluren condition included 0.1 μM POST5; eRF1 at 0.1 μM; eRF3 at 0.2 μM; GTP at 2.0 mM; and Ataluren at […].

For test [2], the target named is T1, near-cognate aa-tRNA.eEF1A.GTP complex (TC) binding at a stop codon (Saccharomyces cerevisiae, UniProt P02994).
T1 sequence (P02994 2-458 limits assumed): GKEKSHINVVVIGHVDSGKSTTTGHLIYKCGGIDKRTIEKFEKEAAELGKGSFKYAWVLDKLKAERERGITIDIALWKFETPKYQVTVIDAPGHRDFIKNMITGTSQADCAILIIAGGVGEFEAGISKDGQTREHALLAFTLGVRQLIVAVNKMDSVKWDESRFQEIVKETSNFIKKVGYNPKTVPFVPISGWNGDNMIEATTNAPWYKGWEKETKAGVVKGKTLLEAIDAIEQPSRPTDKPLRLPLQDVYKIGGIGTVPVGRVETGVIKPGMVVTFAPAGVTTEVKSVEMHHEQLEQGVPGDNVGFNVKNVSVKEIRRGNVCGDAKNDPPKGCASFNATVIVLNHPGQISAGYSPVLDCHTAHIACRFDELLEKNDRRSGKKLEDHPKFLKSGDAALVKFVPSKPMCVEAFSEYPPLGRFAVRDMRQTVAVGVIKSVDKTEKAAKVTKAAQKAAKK
As to conditions: Ng et al., 2021; cited from earlier work.

A further test relates to 80S.IRES complex. Briefly: [3H]-AzAt photoaffinity labeling of 80S.IRES complex. It counts as binding, shrimp (Artemia salina). As to conditions: FIG. 2C. How it is done: Photoaffinity labeling with [^3H]-AzAt. Samples in Buffer 4, typically 20 μL, were incubated in the dark (20 min for Stop-POST5 and 80S-IRES complexes, 2 min for release factors) with various concentrations of [^3H]-AzAt at 37° C., transferred to a UV-transparent cuvette which was covered with parafilm to prevent evaporation, and irradiated in a Rayonet photochemical reactor equipped with 300 nm UV lamps for 5 min at room temperature. This was followed by quenching with 2 mM DTT at 37° C. for 5 min under ambient light. The irradiation time gave complete photolysis of the phenyl azide moiety in AzAt. Photolysis was also complete at 5 min in the presence of 1 mM ataluren, ruling out internal filtering effects.
Stop-POST5 and 80S-IRES complexes. 1 μM solutions of either Stop-POST5 or 80S-S.IRES, determined by A260, were photolabeled by [^3H]-AzAt. The sample was then either directly purified by ultracentrifugation through a sucrose cushion to determine the photoincorporation stoichiometry in the complex, or subjected to phenol/chloroform extraction to determine the photoincorporation stoichiometry in the total RNA. […]

Consider `O=C(O)c1cccc(-c2noc(-c3ccccc3F)n2)c1` [Ataluren], for which the “effect on peptide release (fluorescence anisotropy change)” value in test [1] is on record as “inhibited peptide release”. The “effect on productive binding of near-cognate TC at a stop codon” value in test [2] is “no effect”.

In the case of `[N-]=[N+]=Nc1ccc(-c2nc(-c3cccc(C(=O)O)c3)no2)cc1` [AzAt], the “photoincorporation stoichiometry into 80S.IRES, lower vs. Stop-POST5” value in the test with 80S.IRES complex is given as 25%.
